Results taken from publication PMC3432122, “An Antitubulin Agent BCFMT Inhibits Proliferation of Cancer Cells and Induces Cell Death by Inhibiting Microtubule Dynamics” (PLoS ONE, 2012).

Molecular target: T1, tubulin
T1 construct: purified tubulin (alpha/beta heterodimer)
Experiment: tryptophan fluorescence quenching titration; competition with BODIPY FL-vinblastine (Ki […])
Assay type: binding

Kd: 8.3 ± 1.8 µM
Compound: O=C1NC(=S)S/C1=C\c1ccc(-c2ccc(Br)c(Cl)c2)o1 [BCFMT, (Z)-5-((5-(4-bromo-3-chlorophenyl)furan-2-yl)methylene)-2-thioxothiazolidin-4-one]
